{"source": "patent US12540131B2", "about": "(Merck Sharp & Dohme LLC, priority 2019, dated 2026)", "data": [{"target": "GST tagged truncated human mutant G2019S LRRK2 (Homo sapiens (Human), UniProt Q5S007, G2019S)", "sequence (Q5S007 970-2527 G2019S)": "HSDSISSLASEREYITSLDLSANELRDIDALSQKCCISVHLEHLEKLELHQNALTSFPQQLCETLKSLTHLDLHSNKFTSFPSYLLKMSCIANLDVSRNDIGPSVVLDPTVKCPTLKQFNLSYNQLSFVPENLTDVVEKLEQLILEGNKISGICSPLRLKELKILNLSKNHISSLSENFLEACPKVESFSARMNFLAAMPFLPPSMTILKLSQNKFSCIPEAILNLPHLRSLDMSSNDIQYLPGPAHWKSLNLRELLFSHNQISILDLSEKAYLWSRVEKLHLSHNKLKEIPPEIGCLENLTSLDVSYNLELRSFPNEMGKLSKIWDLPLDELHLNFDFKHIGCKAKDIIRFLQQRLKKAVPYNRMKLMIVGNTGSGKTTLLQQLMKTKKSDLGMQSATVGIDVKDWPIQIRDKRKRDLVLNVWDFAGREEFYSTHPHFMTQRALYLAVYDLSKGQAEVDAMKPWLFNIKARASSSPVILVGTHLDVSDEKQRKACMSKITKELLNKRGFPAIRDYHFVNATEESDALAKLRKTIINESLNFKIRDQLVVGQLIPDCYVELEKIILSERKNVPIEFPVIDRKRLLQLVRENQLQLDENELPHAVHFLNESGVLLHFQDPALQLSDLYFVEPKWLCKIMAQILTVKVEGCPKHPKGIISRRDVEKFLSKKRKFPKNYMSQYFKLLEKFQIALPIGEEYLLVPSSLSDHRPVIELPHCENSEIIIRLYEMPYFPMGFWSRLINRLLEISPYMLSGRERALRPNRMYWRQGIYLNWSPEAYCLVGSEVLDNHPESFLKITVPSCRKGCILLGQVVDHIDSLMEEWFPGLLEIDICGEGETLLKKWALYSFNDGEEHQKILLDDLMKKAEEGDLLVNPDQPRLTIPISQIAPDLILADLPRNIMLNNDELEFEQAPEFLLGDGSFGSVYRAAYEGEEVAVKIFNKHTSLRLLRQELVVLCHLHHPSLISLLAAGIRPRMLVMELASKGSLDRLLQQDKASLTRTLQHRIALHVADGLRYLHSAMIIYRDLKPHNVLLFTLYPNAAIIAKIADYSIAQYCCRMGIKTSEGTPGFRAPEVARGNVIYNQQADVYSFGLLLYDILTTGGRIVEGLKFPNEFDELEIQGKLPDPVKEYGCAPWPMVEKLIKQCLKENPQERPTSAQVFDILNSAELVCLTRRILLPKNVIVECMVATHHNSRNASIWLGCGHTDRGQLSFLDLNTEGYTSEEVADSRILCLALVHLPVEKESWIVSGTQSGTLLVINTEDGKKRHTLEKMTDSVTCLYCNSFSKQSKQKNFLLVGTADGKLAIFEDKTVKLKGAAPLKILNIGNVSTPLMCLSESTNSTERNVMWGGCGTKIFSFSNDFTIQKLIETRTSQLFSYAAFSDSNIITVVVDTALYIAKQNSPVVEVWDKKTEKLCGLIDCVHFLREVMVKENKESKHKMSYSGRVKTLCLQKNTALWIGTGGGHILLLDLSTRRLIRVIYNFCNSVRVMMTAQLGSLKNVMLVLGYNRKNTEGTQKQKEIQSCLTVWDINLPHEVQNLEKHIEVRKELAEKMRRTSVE", "experiment": "LRRK2 Km ATP LanthaScreen Assay", "type": "biochemical", "settings": "G2019S LRRK2, 134 μM ATP (Km ATP), mean values", "procedure,_shortened": "(§1)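 Enzyme (GST-tagged, truncated) was preincubated with compound for 15 min at RT in 50 mM Tris pH 8.5, 10 mM MgCl2, 0.01% Brij-35, 1 mM EGTA, 2 mM DTT and 0.05 mM orthovanadate. Fluorescein-LRRKtide and 134 μM ATP (Km) were then added for 90 min. EDTA and Tb-anti-pERM antibody stopped the reaction; the TR-FRET 520/495 ratio gave 4-parameter IC50s, reported as mean pIC50.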", "values": [{"smiles": "C[C@@]1(N2CC[C@@H](c3cc4nc(Nc5cnn(C6CC6)c5Cl)ncc4cc3Cl)[C@H](F)C2)COC[C@@H]1O", "note": "(single isomer, unassigned) [Ex-4.249, (3S,4S)(3S,4S) or (3S,4S)(3R,4R) or (3R,4R)(3S,4S) or (3R,4R)(3R,4R) 4-(4-{6-chloro-2-[(5-chloro-1-cyclopropyl-1H-pyrazol-4-yl)amino]quinazolin-7-yl}-3-fluoropiperidin-1-yl)-4-methyloxolan-3-ol]", "LRRK2 pIC50": ">9.20"}, {"smiles": "CC1(Cn2ncc(Nc3ncc4cc(Cl)c([C@H]5CCN(C6COC6)C[C@@H]5F)cc4n3)c2Cl)COC1", "note": "(single isomer, unassigned) [Ex-2.12, (3S,4S) or (3R,4R) 6-chloro-N-{5-chloro-1-[(3-methyloxetan-3-yl)methyl]-1H-pyrazol-4-yl}-7-[3-fluoro-1-(oxetan-3-yl)piperidin-4-yl]quinazolin-2-amine]", "LRRK2 pIC50": ">9.20"}, {"smiles": "Cc1cc2cnc(Nc3cnn(C4CC4)c3Cl)nc2cc1[C@@H]1CCN(C2COC2)C[C@H]1F", "note": "(single isomer, unassigned) [Ex-4.82, (3S,4S) or (3R,4R) N-(5-chloro-1-cyclopropyl-1H-pyrazol-4-yl)-7-[3-fluoro-1-(oxetan-3-yl)piperidin-4-yl]-6-methylquinazolin-2-amine]", "LRRK2 pIC50": ">9.20"}, {"smiles": "Cc1c(Nc2ncc3cc(Cl)c([C@@H]4CCN(C5COC[C@H]5O)C[C@H]4F)cc3n2)cnn1C1CC1", "note": "(single isomer, unassigned) [Ex-4.128, (3S,4S)(3S,4S) or (3S,4S)(3R,4R) or (3R,4R)(3S,4S) or (3R,4R)(3R,4R) 4-[4-{6-chloro-2-[(1-cyclopropyl-5-methyl-1H-pyrazol-4-yl)amino]quinazolin-7-yl}-3-fluoropiperidin-1-yl]oxolan-3-ol]", "LRRK2 pIC50": 8.99}, {"smiles": "Cc1c(Nc2ncc3cc(Cl)c(C4CCN(C[C@H](O)CN5CCCC5=O)CC4)cc3n2)cnn1C1CC1", "note": "[Ex-4.216, 1-[(2S)-3-(4-{6-chloro-2-[(1-cyclopropyl-5-methyl-1H-pyrazol-4-yl)amino]quinazolin-7-yl}piperidin-1-yl)-2-hydroxypropyl]pyrrolidin-2-one]", "LRRK2 pIC50": 9.05}, {"smiles": "Cn1nc(C(F)(F)F)cc1Nc1ncc2cc(Cl)c([C@@H]3CCN([C@]4(C)COC[C@@H]4O)C[C@H]3F)cc2n1", "note": "(single isomer, unassigned) [Ex-4.251, (3S,4S)(3S,4S) or (3S,4S)(3R,4R) or (3R,4R)(3S,4S) or (3R,4R)(3R,4R) 4-[4-(6-chloro-2-{[1-methyl-3-(trifluoromethyl)-1H-pyrazol-5-yl]amino}quinazolin-7-yl)-3-fluoropiperidin-1-yl]-4-methyloxolan-3-ol]", "LRRK2 pIC50": 9.05}, {"smiles": "CC1(n2ncc(Nc3ncc4cc(Cl)c(C5CCN([C@]6(C)COC[C@@H]6O)CC5)cc4n3)c2Cl)CC1", "note": "(single isomer, unassigned) [Ex-2.88, (3S,4S) or (3R,4R) 4-[4-(6-chloro-2-{[5-chloro-1-(1-methylcyclopropyl)-1H-pyrazol-4-yl]amino}quinazolin-7-yl)piperidin-1-yl]-4-methyloxolan-3-ol]", "LRRK2 pIC50": ">9.20"}, {"smiles": "Cc1c(Nc2ncc3cc(Cl)c(C4CCN(C5CCC(CC#N)C5)CC4)cc3n2)cnn1C1CC1", "note": "(single isomer, unassigned) [Ex-4.171, (1R,3R) or (1S,3R) or (1R,3S) or (1S,3S) [3-(4-{6-chloro-2-[(1-cyclopropyl-5-methyl-1H-pyrazol-4-yl)amino]quinazolin-7-yl}piperidin-1-yl)cyclopentyl]acetonitrile]", "LRRK2 pIC50": 8.51}, {"smiles": "N#CC1CCC(N2CC[C@@H](c3cc4nc(Nc5cnn(C6CC6)c5Cl)ncc4cc3Cl)[C@H](F)C2)C1", "note": "(single isomer, unassigned) [Ex-4.109, (1R,3S)-3-((3S,4S) or (1S,3R)-3-((3S,4S) or (1R,3R)-3-((3S,4S) or (1S,3S)-3-((3S,4S) or (1R,3S)-3-((3R,4R) or (1S,3R)-3-((3R,4R) or (1R,3R)-3-((3R,4R) or 1S,3S)-3-((3R,4R) 4-(6-chloro-2-((5-chloro-1-cyclopropyl-1H-pyrazol-4-yl)amino)quinazolin-7-yl)-3-fluoropiperidin-1-yl)cyclopentane-1-carbonitrile]", "LRRK2 pIC50": 7.99}, {"smiles": "CC1(N2CC[C@H](c3cc4nc(Nc5cnn(C6CC6(F)F)c5Cl)ncc4cc3Cl)[C@@H](F)C2)COC[C@@H]1O", "note": "(single isomer, unassigned) [Ex-4.11, (R)(3S,4S)(3S,4S) or (R)(3S,4S)(3R,4R) or (R)(3R,4R)(3S,4S) or (R)(3R,4R)(3R,4R) or (S)(3S,4S)(3S,4S) or (S)(3S,4S)(3R,4R) or (S)(3R,4R)(3S,4S) or (S)(3R,4R)(3R,4R) 4-(6-chloro-2-((5-chloro-1-(2,2-difluorocyclopropyl)-1H-pyrazol-4-yl)amino)quinazolin-7-yl)-3-fluoropiperidin-1-yl)-4-methyltetrahydrofuran-3-ol]", "LRRK2 pIC50": 8.73}, {"smiles": "Cc1c(Nc2ncc3cc(Cl)c(C4CCN(C[C@@H](O)c5cc(F)ccc5F)CC4)cc3n2)cnn1C1CC1", "note": "[Ex-4.205, (1S)-2-(4-{6-chloro-2-[(1-cyclopropyl-5-methyl-1H-pyrazol-4-yl)amino]quinazolin-7-yl}piperidin-1-yl)-1-(2,5-difluorophenyl)ethan-1-ol]", "LRRK2 pIC50": 8.40}, {"smiles": "FC1COCC1N1CC[C@H](c2cc3nc(Nc4cnn(C5CC5(F)F)c4Cl)ncc3cc2Cl)C(F)C1", "note": "(some centres unmarked) [Ex-7.2]", "LRRK2 pIC50": ">9.20"}, {"smiles": "N#CCCN1CCC(c2cc3nc(Nc4cnn(C5CC5)c4Cl)ncc3cc2Cl)CC1", "note": "[Ex-8.6, 3-(4-{6-chloro-2-[(5-chloro-1-cyclopropyl-1H-pyrazol-4-yl)amino]quinazolin-7-yl}piperidin-1-yl)propanenitrile]", "LRRK2 pIC50": 8.17}, {"smiles": "Cc1c(Nc2ncc3cc(Cl)c(C4CCN([C@@]5(C)COC[C@H]5O)CC4)cc3n2)cnn1C1CC1", "note": "(single isomer, unassigned) [Ex-1.15, (3S,4S) or (3R,4R) 4-(4-(6-chloro-2-((1-cyclopropyl-5-methyl-1H-pyrazol-4-yl)amino)quinazolin-7-yl)piperidin-1-yl)-4-methyltetrahydrofuran-3-ol]", "LRRK2 pIC50": 8.16}, {"smiles": "Cc1c(Nc2ncc3cc(Cl)c(C4CCN(C[C@@H](O)c5ccc(F)cc5)CC4)cc3n2)cnn1C1CC1", "note": "[Ex-4.214, (1S)-2-(4-{6-chloro-2-[(1-cyclopropyl-5-methyl-1H-pyrazol-4-yl)amino]quinazolin-7-yl}piperidin-1-yl)-1-(4-fluorophenyl)ethan-1-ol]", "LRRK2 pIC50": 8.62}, {"smiles": "CN1CC[C@@H](c2cc3nc(Nc4cnn(CC(C)(C)O)c4Cl)ncc3cc2Cl)[C@H](F)C1", "note": "(single isomer, unassigned) [Ex-4.22, (3S,4S) or (3R,4R) 1-(5-chloro-4-{[6-chloro-7-(3-fluoro-1-methylpiperidin-4-yl)quinazolin-2-yl]amino}-1H-pyrazol-1-yl)-2-methylpropan-2-ol]", "LRRK2 pIC50": ">9.20"}, {"smiles": "Cc1cc2cnc(Nc3cnn(C4CC4(F)F)c3Cl)nc2cc1[C@@H]1CCN([C@@]2(C)COC[C@H]2O)C[C@H]1F", "note": "(single isomer, unassigned) [Ex-4.147, (R)(3S,4S)(3S,4S) or (R)(3S,4S)(3R,4R) or (R)(3R,4R)(3S,4S) or (R)(3R,4R)(3R,4R) or (S)(3S,4S)(3S,4S) or (S)(3S,4S)(3R,4R) or (S)(3R,4R)(3S,4S) or (S)(3R,4R)(3R,4R) 4-[4-(2-{[5-chloro-1-(2,2-difluorocyclopropyl)-1H-pyrazol-4-yl]amino}-6-methylquinazolin-7-yl)-3-fluoropiperidin-1-yl]-4-methyloxolan-3-ol]", "LRRK2 pIC50": ">9.20"}, {"smiles": "Cc1c(Nc2ncc3cc(Cl)c([C@@H]4CCN(C5COC5)C[C@H]4F)cc3n2)cnn1C1CC1(F)F", "note": "(single isomer, unassigned) [Ex-4.177, (R)(3S,4S) or (S)(3S,4S) or (R)(3R,4R) or (S)(3R,4R) 6-chloro-N-[1-(2,2-difluorocyclopropyl)-5-methyl-1H-pyrazol-4-yl]-7-[(3R,4R)-3-fluoro-1-(oxetan-3-yl)piperidin-4-yl]quinazolin-2-amine]", "LRRK2 pIC50": 9.16}]}, {"target": "GST tagged truncated human mutant G2019S LRRK2 (Homo sapiens (Human), UniProt Q5S007, G2019S)", "experiment": "LRRK2 Km ATP LanthaScreen Assay", "type": "biochemical", "settings": "G2019S LRRK2, 134 μM ATP (Km ATP), mean values; read-out: LRRK2 pIC50 (converted)", "procedure,_shortened": "as §1", "units": {"IC50": "nM"}, "values": [{"smiles": "CC(C)(O)Cn1ncc(Nc2ncc3cc(Cl)c(C4CCN(C5CCOC5)CC4)cc3n2)c1Cl", "note": "(single isomer, unassigned) [Ex-4.77, (S) or (R) 1-[5-chloro-4-({6-chloro-7-[1-(oxolan-3-yl)piperidin-4-yl]quinazolin-2-yl}amino)-1H-pyrazol-1-yl]-2-methylpropan-2-ol]", "IC50": 1.82}, {"smiles": "Clc1cc2cnc(Nc3cnn(C4CC4)c3Cl)nc2cc1C1CCN(C2COC3(CCC3)C2)CC1", "note": "(single isomer, unassigned) [Ex-4.115, (R) or (S) 7-(1-(5-oxaspiro[3.4]octan-7-yl)piperidin-4-yl)-6-chloro-N-(5-chloro-1-cyclopropyl-1H-pyrazol-4-yl)quinazolin-2-amine]", "IC50": 0.851}, {"smiles": "Clc1cc2cnc(Nc3cnn(C4CC4)c3Cl)nc2cc1C1CCN(C2COC2)C1", "note": "(single isomer, unassigned) [Ex-4.32, (S) or (R) 6-chloro-N-(5-chloro-1-cyclopropyl-1H-pyrazol-4-yl)-7-[1-(oxetan-3-yl)pyrrolidin-3-yl]quinazolin-2-amine]", "IC50": 16.6}, {"smiles": "CC(C)(O)CN1CCC(c2cc3nc(Nc4cnn(C5CC5)c4)ncc3cc2Cl)C1", "note": "(single isomer, unassigned) [Ex-1.10, (S) or (R) 1-(3-{6-chloro-2-[(1-cyclopropyl-1H-pyrazol-4-yl)amino]quinazolin-7-yl}pyrrolidin-1-yl)-2-methylpropan-2-ol]", "IC50": 28.2}, {"smiles": "O=S1(=O)CCC(N2CCC(c3cc4nc(Nc5cnn(CC(F)F)c5Cl)ncc4cc3Cl)CC2)C1", "note": "(racemic) [Ex-4.6, (S) and (R) 3-(4-(6-chloro-2-((5-chloro-1-(2,2-difluoroethyl)-1H-pyrazol-4-yl)amino)quinazolin-7-yl)piperidin-1-yl)tetrahydrothiophene 1,1-dioxide]", "IC50": "< 0.631"}]}]}
